ChEMBL document CHEMBL1144228, “Isoxazolo[3,4-b]quinoline-3,4(1H,9H)-diones as unique, potent and selective inhibitors for Pim-1 and Pim-2 kinases: chemistry, biological activities, and molecular modeling” (Bioorg Med Chem Lett, 2008)

Legend:
[1] = target: Serine/threonine-protein kinase pim-2 (Homo sapiens, UniProt Q9P1W9); experiment: Inhibition of Pim2
[2] = target: Serine/threonine-protein kinase pim-1 (Homo sapiens, UniProt P11309); experiment: Inhibition of Pim1
[3] = target: T1, 5'-AMP-activated protein kinase subunit beta-1 (Homo sapiens, UniProt Q9Y478); experiment: Inhibition of AMPK
T1 sequence (Q9Y478 whole entry): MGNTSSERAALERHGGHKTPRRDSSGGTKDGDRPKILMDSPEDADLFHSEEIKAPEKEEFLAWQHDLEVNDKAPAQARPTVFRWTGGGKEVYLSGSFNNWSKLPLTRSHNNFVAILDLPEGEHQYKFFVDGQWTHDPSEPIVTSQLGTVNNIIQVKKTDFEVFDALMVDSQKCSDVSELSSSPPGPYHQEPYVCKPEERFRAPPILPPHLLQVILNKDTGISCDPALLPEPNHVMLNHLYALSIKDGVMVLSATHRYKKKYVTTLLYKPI

[4] = target: Serine/threonine-protein kinase MARK1 (Homo sapiens, UniProt Q9P0L2); experiment: Inhibition of MARK
[5] = target: T2, Protein kinase C iota type (Homo sapiens, UniProt P41743); experiment: Inhibition of PKCiota
T2 sequence (P41743 whole entry): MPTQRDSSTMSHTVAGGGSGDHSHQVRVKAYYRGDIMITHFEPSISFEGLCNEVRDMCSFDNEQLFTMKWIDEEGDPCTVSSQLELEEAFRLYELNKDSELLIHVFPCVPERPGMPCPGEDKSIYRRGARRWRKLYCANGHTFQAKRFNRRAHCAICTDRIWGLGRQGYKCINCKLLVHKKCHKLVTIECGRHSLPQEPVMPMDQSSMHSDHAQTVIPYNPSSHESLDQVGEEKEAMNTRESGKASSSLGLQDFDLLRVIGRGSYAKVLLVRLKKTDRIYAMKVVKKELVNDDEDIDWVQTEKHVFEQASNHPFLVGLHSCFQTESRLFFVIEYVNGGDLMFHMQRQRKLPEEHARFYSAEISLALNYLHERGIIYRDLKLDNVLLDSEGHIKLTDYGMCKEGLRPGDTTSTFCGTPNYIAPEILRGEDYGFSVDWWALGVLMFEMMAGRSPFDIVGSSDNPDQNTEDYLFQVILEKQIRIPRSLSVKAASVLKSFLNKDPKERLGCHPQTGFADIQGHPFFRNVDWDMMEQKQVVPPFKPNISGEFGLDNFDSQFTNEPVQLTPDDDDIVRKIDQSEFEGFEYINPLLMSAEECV

[6] = Inhibition of PKA
[7] = Inhibition of Casein kinase 2
[8] = Inhibition of Aurora1
[9] = Inhibition of Aurora2

Chain of Serine/threonine-protein kinase pim-2 (Q9P1W9 whole entry): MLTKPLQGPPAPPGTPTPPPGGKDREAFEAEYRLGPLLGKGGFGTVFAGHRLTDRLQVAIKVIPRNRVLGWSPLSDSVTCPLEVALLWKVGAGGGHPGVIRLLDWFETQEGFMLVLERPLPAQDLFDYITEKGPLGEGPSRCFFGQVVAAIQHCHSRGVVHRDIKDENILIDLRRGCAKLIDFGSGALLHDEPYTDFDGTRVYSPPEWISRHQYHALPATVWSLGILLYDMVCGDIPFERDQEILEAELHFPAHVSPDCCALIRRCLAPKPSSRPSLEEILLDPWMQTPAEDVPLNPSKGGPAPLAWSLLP
Chain of Serine/threonine-protein kinase pim-1 (P11309 whole entry): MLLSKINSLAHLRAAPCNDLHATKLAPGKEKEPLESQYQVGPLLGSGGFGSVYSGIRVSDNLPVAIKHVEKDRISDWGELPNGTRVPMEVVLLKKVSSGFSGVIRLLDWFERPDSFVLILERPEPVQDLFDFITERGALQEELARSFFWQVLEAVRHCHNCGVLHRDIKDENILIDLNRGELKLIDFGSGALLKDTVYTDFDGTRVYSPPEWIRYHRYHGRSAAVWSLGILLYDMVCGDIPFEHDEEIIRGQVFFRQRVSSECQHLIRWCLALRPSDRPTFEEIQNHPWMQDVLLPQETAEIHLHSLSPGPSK
Chain of Serine/threonine-protein kinase MARK1 (Q9P0L2 whole entry): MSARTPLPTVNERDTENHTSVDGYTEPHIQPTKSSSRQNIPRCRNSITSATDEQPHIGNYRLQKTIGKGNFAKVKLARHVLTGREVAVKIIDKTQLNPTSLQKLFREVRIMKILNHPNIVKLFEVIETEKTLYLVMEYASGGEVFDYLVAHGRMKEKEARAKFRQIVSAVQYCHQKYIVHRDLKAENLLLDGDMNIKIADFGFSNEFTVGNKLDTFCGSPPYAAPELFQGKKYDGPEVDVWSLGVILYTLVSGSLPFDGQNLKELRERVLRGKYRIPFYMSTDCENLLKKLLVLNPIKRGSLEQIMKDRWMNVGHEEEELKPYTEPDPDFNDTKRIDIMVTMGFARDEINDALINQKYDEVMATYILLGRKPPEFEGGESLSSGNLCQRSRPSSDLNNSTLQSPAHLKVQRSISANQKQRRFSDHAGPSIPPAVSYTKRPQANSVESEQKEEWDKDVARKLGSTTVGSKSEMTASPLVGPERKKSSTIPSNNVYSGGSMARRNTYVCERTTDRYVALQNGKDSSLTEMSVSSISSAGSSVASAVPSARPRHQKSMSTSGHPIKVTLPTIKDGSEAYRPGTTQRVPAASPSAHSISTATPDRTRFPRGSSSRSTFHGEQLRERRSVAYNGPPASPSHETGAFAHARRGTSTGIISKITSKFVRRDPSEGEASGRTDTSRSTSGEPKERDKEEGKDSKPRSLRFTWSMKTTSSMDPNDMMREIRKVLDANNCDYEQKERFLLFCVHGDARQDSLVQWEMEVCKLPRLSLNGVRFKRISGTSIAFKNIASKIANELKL

Row | Ki [1] [nM] | Ki [2] [nM] | Structure (SMILES) | also measured
1 | 62.8 | 12.3 | CC(C)n1c2cc(Cl)c(F)cc2c(=O)c2c(=O)o[nH]c21 | 
2 | 165 | 15 | CCCCn1c2cc(Cl)c(F)cc2c(=O)c2c(=O)o[nH]c21 | 
3 | 43.5 |  | CCn1c2cc(Cl)c(O)cc2c(=O)c2c(=O)o[nH]c21 | Ki [3]: 1730 nM; Ki [4]: > 8.44 µM; Ki [5]: > 8.33 µM; Ki [6]: > 7.5 µM; Ki [7]: 1070 nM; Ki [8]: > 6.88 µM; Ki [9]: > 6.67 µM

The next lines start with the compound.

Row | Structure (SMILES) | Ki [1] [nM] | Ki [2] [nM] | also measured
4 | O=c1o[nH]c2c1c(=O)c1cc(F)c(Cl)cc1n2Cc1ccccc1 | 558 | 36.5 | 
5 | CCn1c2cc(Cl)c(F)cc2c(=O)c2c(=O)on(Cc3ccccc3)c21 | > 1420 | 1270 | 
6 | CCn1c2cc(Cl)c(F)cc2c(=O)c2c(=O)on(CCOCc3ccccc3)c21 | > 1420 | 4890 | 
7 | CCn1c2cc(Cl)c(F)cc2c(=O)c2c(=O)on(Cc3cccc(O)c3)c21 | > 1420 | 271 | 
8 | CCn1c2cc(Cl)c(OC)cc2c(=O)c2c(=O)o[nH]c21 | > 1420 | 2700 | 
9 | CCn1c2cc(Cl)c(F)cc2c(=O)c2c(=O)on(CCO)c21 | > 1420 | 1160 | 
